Reference: patent US11795200B2, “Nano small peptide and its use in preparation of drugs for treating and preventing fundus vascular diseases” (FUTU Biotech Co., Ltd., priority 2021, dated 2023)
Like-named read-outs stand apart in the source and are kept apart here. Non-standard residues stand in square brackets, D forms with d. Residues, ends and D or L forms follow the SMILES beside them. No end group written: not given here. *: point of attachment. Palmitoyl = CCCCCCCCCCCCCCCC(=O)*

How the values were obtained:
[1] = DLS particle size and zeta potential of FH and FG nanoparticles; type: physicochemical; conditions: zeta sizer, 25° C.
Protocol: First, FG and FH nanoparticle solutions with a concentration of 20 μM were prepared as follows. 0.01 mmol of FG (or FH) was weighed and dissolved in 1 mL of DMSO solution, and then diluted into 5 folds to a concentration of 2 mM, thus obtaining mother solution A. 10 μL of mother solution A was quickly added to 1 mL of water, and the resulting solution was then vortexed for 30 s to obtain a nanoparticle solution. Second, samples were made. 10 ul of FG (or FH) solution was added dropwise onto a copper mesh for 5 min, and the excess solution was removed with filter paper. 10 μL of uranyl acetate stain was added dropwise for 5 min, and the excess stain was removed with filter paper. Washing with 10 μl of deionized water was carried out once. The samples were dried in vacuum overnight. Finally, transmission electron microscopy observations were performed on an HT-7700 transmission electron microscope (Hitachi, Tokyo, Japan). Scale bar was 200 nm.
The particle size and zeta potential of FH and FG nanoparticles were measured with a zeta sizer (Nano ZZ90, Malvern, UK) at 25° C.

sSema4D = molecular target: T1, sSema4D (Mus musculus, UniProt O09126); test: Reduction of sSema4D concentration in endothelial cell culture medium (ELISA); type: cell-based; conditions: for sSema4D concentration: medium with 1600 ng/mL sSema4D, FH 20 μM, BMA-12 2 μg/μL; for sustained reduction of sSema4D concentration: added to endothelial cells, 12 to 48 h
T1 construct: the free Sema4D protein after enzyme cleavage of Sema4D; purchased R&D Systems
T1 sequence (O09126 24-733): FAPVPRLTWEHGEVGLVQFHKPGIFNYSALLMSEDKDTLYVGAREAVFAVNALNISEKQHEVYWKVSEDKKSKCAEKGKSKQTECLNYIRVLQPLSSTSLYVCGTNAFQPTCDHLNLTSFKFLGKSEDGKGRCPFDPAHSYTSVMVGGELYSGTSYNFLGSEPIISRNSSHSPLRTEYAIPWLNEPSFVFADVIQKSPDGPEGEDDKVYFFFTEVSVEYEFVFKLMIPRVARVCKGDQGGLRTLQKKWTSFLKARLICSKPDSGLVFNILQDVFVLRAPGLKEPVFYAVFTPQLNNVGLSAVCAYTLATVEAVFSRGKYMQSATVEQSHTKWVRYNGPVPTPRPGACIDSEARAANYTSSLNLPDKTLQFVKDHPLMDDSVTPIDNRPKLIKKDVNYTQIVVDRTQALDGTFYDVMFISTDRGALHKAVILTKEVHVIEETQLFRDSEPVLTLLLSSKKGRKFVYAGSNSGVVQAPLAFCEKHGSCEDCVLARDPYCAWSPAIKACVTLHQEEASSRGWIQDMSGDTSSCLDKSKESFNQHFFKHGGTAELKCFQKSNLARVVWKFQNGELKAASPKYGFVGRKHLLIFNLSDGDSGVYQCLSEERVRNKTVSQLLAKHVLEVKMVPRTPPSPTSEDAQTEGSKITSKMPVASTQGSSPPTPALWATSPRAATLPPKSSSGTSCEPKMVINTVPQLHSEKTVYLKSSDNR
Protocol: Endothelial cells were uniformly seeded in 6-well cell culture plates and cultured in a 5% CO2 incubator at 37° C. for 24 h. The nano small peptides FH, FG, DMSO, and Sema4D neutralizing antibody (BMA-12) were added to the medium (the concentration of sSema4D in the medium was 1600 ng/mL) to ensure that the final concentration of FH and FG was 20 μM, and the final concentration of the sSema4D neutralizing antibody (BMA-12) was 2 μg/μL, an equal volume of DMSO was then added as a control, and the culture plates were cultured in an incubator for 12, 24, 36, and 48 h, respectively. The cell culture medium was then collected and centrifuged. The supernatant was taken and the expression of Sema4D protein in the supernatant was detected using an ELISA kit (Shanghai Yuanmu Biotechnology Co., Ltd.).

[2] = test system: primary mouse brain microvascular pericytes; test: sSema4D-induced pericyte migration (transwell experiment); type: cell-based; conditions: 36 h; for sSema4D-induced pericyte migration: 20 μM, sSema4D 1600 ng/mL
Protocol: The primary mouse brain microvascular pericytes were starved with 0.5% PM for 4 to 6 h. The pericytes were seeded in the upper layer of a 24-well transwell chamber (8 μm). The medium containing FH (20 μM), FG (20 μM), and Sema4D neutralizing antibody (BMA-12) (2 μg/μL) (the concentration of sSema4D in the medium is 1600 ng/mL) was added to the lower chamber, and an equal volume of DMSO was added as control. The cells were incubated in a 5% CO2 incubator at 37° C. for 36 h. 36 h later, the cells on the bottom of the chamber were fixed with 4% paraformaldehyde and stained with crystal violet, and the pericytes that penetrated to the bottom of the chamber were counted under a microscope.

[3] = test system: endothelial cells (primary endothelial cells of mouse brain microvessels); test: CCK8 cytotoxicity assay; conditions: 20 μM; 12, 14, and 36 h
[4] = In vivo imaging of small animals, entry into vitreous humor; conditions: eye drops (10 μL, 20 μM, three times) and vitreous injection (1 μl, 20 μM)
Protocol: (§1) 10 μL of FH and FG eye drops (with the concentration of 20 μM, the solvent therein was artificial tears) were instilled on the eyeball surface of mice (8-week-old C57 male mice), once at an interval of 1 h. One hour after the third eye drop, the mice were anesthetized to have cardiac perfusion, the eyeballs of the mice were taken out, the connective tissue on the eye surface was trimmed, and the eyeballs were washed with PBS solution for several times to remove the nano eye drops from the surface of the eyeballs. The eyeball was placed in a small animal imager (at emission wavelength of 535 nm and excitation wavelength of 490 nm) for image acquisition.

[5] = mouse, in vivo
Protocol: as §1

Molecule | charges (zeta potential) [1] | particle diameters [1] [nm] | sSema4D concentration (sSema4D; 24 h, endothelial cells) | sSema4D concentration (sSema4D; 36 h, endothelial cells) | sustained reduction of sSema4D concentration (sSema4D; 20 μM) | effect on sSema4D concentration, FH compared with FG (sSema4D; endothelial cells, within the same action time, 20 μM) | inhibition of pericyte migration compared with BMA-12 ([2]; 20 μM vs BMA-12 2 μg/μL) | sSema4D-induced pericyte migration [2] | toxic effects on endothelial cells [3] | entry into the vitreous humor of mice [4] | entry into the vitreous humor of mice [5]
CCCCCCCCCCCCCCCC(=O)N[C@H](Cc1ccccc1)C(=O)N[C@@H](Cc1ccccc1)C(=O)N[C@H](C(=O)N[C@@H](CC(C)C)C(=O)N[C@@H](CCCCN)C(=O)N[C@@H](CCCCN)C(=O)N[C@@H](CCC(N)=O)C(=O)N[C@@H](CCCCN)C(=O)N[C@@H](CCCNC(=N)N)C(=O)N1CCC[C@H]1C(=O)N[C@@H](CCCNC(=N)N)C(=O)N[C@@H](Cc1c[nH]cn1)C(=O)O)C(C)C [FH] (Palmitoyl-[dF]FVLKKQKRPRH-OH) | +40.4 mV | 54.43±2.8 | can reduce the sSema4D concentration | can still reduce the sSema4D concentration | can sustainably reduce the concentration of sSema4D | better than that of FG | more effective in inhibiting pericyte migration than Sema4D neutralizing antibody (BMA-12) | can significantly inhibit the sSema4D-induce pericyte migration | did not cause toxic effects | entered the vitreous humor of mice | –
Palmitoyl-FFVLKKNKAAKG [FG] | +44.8 mV | 57.67±2.6 | – | – | can sustainably reduce the concentration of sSema4D | – | – | can significantly inhibit the sSema4D-induce pericyte migration | – | – | entered the vitreous humor of mice
